From patent US7872043B2, “Use of furan alkyls for a cellulite cosmetic treatment” (Laboratories Expanscience, priority 2004, dated 2011)

What was measured:
[1] = tested on: mice fattened on a high fat/high sucrose diet (HF/HS); experiment: Food intake and weight gain of mice on HF/HS diet; type: in vivo; conditions: curative; TZD 10 mg/kg/dy
Description: (§1) We used adult mice (aged 6 weeks) of masculine gender fattened on a high fat/high sucrose diet (HF/HS). Feeding with the HF/HS diet began on mice aged 6 weeks and continued throughout the period of the study. The study was conducted along 2 axes: • prevention: the product was administered as soon as feeding began with the HF/HS diet; • management (curative): the product was administered 12 weeks after the start of the HF/HS diet. Total treatment time (preventive and curative): 23 weeks.
(§2) Each experimental group comprised 10 mice.

[2] = tested on: mice fattened on a high fat/high sucrose diet (HF/HS); experiment: Blood parameters: plasma lipids (total cholesterol, LDL, HDL, TG, FFA); type: in vivo; conditions: TZD 10 mg/kg/day; for HDL / Total cholesterol: (3 W***)
Description: as §1, §2
(§3) Subsequently the following were analysed: lipoprotein profile (by size exclusion chromatography); apolipoportein A1; lipid composition of the liver (liver triglycerides, cholesterol and free fatty acids); histological analysis of the liver and adipose tissue; staining of accumulated lipids in the liver.
(§4) The different cholesterol blood levels and different fractions were analysed using a HPLC method.

[3] = tested on: mice fattened on a high fat/high sucrose diet (HF/HS); experiment: Plasma lipoprotein profile (size exclusion chromatography); type: in vivo; conditions: TZD
Description: as §1, §2, §3, §4

[4] = tested on: mice fattened on a high fat/high sucrose diet (HF/HS); experiment: Blood glucose and insulin analysis; type: in vivo; conditions: TZD 10 mg/kg/day
Description: as §1, §2, §3

[5] = tested on: mice fattened on a high fat/high sucrose diet (HF/HS); experiment: Intra Peritoneal Insulin Sensitive Test (IPIST); type: in vivo; conditions: preventive; TZD 10 mg/kg/day; (3 W***)
Description: Diabetics suffer from an increase in insulin resistance which leads to hyperglycaemia.

[6] = tested on: mice fattened on a high fat/high sucrose diet (HF/HS); experiment: Hepatic metabolism: transaminases and alkaline phosphatase (liver toxicity); type: in vivo; conditions: TZD and AV102 groups; considered very moderate, does not appear to reflect liver toxicity
[7] = tested on: ACO (target PPARα); experiment: Liver mRNA expression, real-time Q-RT-PCR: ACO; type: in vivo; conditions: TZD; AV102 (0.25%); 5 mice per group
Description: (§5) In the liver, the mRNA expressions of 8 genes were determined in 5 mice of each group using real-time Q-RT-PCR analysis.

[8] = tested on: PEPCK (target PPARγ); experiment: Liver mRNA expression, real-time Q-RT-PCR: PEPCK; type: in vivo, mice; conditions: TZD; AV102 (0.25%)
Description: as §5

[9] = tested on: CYP7A1; experiment: Liver mRNA expression, real-time Q-RT-PCR: CYP7A1; type: in vivo, mice; conditions: TZD; AV102 (0.25%)
Description: as §5

[10] = tested on: ME, FAS, ACC (fatty acid synthesis); experiment: Liver mRNA expression, real-time Q-RT-PCR: ME, FAS, ACC; type: in vivo, mice; conditions: TZD; AV102 (0.25%)
Description: as §5

[11] = tested on: PGC-1 (mitochondria biogenesis); experiment: Muscle/BAT mRNA expression: PGC-1; type: in vivo, mice; conditions: TZD, AV102 (0.25%)
Description: In the brown adipose tissue (BAT) and in the muscles, the mRNA expression of 3 genes was determined in 5 mice of each group by real-time Q-RTR-PCR analysis.

For `CN(CCOc1ccc(CC2SC(=O)NC2=O)cc1)c1ccccn1` (stereo not drawn) [TZD, Rosiglitazone], the Mouse wt. [1] was “did not cause the overweight mice to lose weight”, the LDL ([2]; curative) was “reduction” and the “TG (Triglycerides)” value ([2]; curative) was “No change”. The HDL ([2]; curative) was “reduction”, the Total cholesterol ([2]; curative) was “reduction” and the LDL ([2]; preventive) was “downward trend”. The “TG (Triglycerides)” value ([2]; preventive) was “significantly reduced”, the HDL ([2]; preventive) was “significant reduction” and the Total cholesterol ([2]; preventive) was “significant reduction”. The “Fractions of HDL and VLDL cholesterol (lipoprotein profiles)” value ([3]; curative, after 3 weeks' treatment) was “reduction”, the “HDL, LDL and VLDL cholesterol fractions (plasma lipoprotein profiles)” value ([3]; preventive, weeks 8 and 15) was “reduction” and the “GLUCOSE (blood)” value ([4]; curative, (3 W**)) was “dropped considerably and ↓↓”. The “GLUCOSE (blood)” value ([4]; preventive) was “↓”, the “INSULIN (blood)” value ([4]; preventive) was “↓” and the “IPIST (insulin sensitivity test)” value [5] was “↓↓”. For the same compound, the “Plasma ALP” value [6] was “increase”, the “ACO (target PPARα) mRNA in the liver” value [7] was “↑” and the “PEPCK (target PPARγ) mRNA in the liver” value [8] was “↑”. For the same compound, the “CYP7A1 (conversion oxysterol into biliary acids) mRNA in the liver” value [9] was “↑↑”, the “ME, FAS, ACC (fatty acid synthesis) mRNA in the liver” value [10] was “↑↑” and the “PGC-1 (mitochondria biogenesis) mRNA in muscle/BAT” value [11] was “↑ (muscle)”.
